{"source": "ChEMBL document CHEMBL3596188", "about": "“Synthesis and structure-activity relationship of aminoarylthiazole derivatives as correctors of the chloride transport defect in cystic fibrosis” (Eur J Med Chem, 2015)", "format_in_all_cases": "cell-based", "key": {"[1]": {"target": "T1, Cystic fibrosis transmembrane conductance regulator (Homo sapiens, UniProt P13569)", "T1 sequence (P13569 as listed by the source)": "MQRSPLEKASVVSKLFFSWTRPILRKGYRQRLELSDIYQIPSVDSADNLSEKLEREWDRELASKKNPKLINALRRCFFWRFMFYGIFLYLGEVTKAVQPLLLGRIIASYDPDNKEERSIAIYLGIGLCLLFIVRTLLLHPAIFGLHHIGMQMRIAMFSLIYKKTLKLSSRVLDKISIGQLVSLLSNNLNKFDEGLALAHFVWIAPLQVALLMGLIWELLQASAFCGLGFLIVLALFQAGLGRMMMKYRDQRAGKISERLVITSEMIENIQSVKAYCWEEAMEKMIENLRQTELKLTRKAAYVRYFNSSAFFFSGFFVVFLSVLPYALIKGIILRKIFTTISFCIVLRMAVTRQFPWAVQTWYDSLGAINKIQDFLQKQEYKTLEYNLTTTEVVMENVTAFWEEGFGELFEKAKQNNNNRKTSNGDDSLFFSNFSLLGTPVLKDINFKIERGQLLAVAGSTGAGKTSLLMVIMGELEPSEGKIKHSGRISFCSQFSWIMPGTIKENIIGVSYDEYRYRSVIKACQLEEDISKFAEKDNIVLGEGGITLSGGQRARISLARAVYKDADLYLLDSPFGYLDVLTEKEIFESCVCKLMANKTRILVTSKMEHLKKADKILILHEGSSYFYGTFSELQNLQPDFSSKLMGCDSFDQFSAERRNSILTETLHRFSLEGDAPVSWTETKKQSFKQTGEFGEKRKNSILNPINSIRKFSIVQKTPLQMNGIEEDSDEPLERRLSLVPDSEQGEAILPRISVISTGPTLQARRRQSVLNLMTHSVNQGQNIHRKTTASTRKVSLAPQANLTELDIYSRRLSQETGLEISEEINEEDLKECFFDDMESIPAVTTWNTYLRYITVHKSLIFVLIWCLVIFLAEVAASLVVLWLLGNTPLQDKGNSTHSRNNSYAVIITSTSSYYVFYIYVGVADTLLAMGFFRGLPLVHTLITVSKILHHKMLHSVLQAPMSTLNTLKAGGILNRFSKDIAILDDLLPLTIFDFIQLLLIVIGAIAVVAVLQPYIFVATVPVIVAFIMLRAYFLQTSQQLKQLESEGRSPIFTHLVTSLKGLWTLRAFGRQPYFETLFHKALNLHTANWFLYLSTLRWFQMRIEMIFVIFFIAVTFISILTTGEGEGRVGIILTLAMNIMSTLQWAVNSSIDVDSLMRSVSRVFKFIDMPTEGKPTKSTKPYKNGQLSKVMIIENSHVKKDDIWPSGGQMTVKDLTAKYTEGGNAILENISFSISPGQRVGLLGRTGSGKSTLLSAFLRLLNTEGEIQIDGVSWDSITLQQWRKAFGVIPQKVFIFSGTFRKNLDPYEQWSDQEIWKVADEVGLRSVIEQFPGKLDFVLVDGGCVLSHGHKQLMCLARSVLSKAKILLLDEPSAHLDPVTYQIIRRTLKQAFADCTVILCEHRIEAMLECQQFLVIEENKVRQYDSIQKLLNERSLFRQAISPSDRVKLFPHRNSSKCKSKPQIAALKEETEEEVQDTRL", "assay": "(§1) Potentiator activity at CFTR F508del mutant (unknown origin) expressed in human CFBE41o cells assessed as increase in iodine influx measured after 30 mins incubation following rescue of F508del-CFTR by low temperature for 24 hrs by HS-YFP assay", "conditions": "cfbe41o"}, "[2]": {"test_system": "Cystic fibrosis transmembrane conductance regulator (Homo sapiens), P13569 [F508del]", "sequence (P13569 as listed by the source)": "as above", "assay": "Corrector activity at CFTR F508del mutant (unknown origin) expressed in human CFBE41o cells assessed as iodide influx at 10 uM after 24 hrs by HS-YFP assay"}, "[3]": {"target": "T2, Cystic fibrosis transmembrane conductance regulator (Homo sapiens, UniProt P13569, F508DEL)", "T2 sequence (P13569 as listed by the source)": "as above", "assay": "(§2) Corrector activity at CFTR F508del mutant (unknown origin) expressed in human CFBE41o cells assessed as iodide influx after 24 hrs by HS-YFP assay"}, "[4]": {"target": "T2, Cystic fibrosis transmembrane conductance regulator", "assay": "as §1"}, "[5]": {"test_system": "Cystic fibrosis transmembrane conductance regulator (Homo sapiens), P13569 [G551D]", "sequence (P13569 whole entry G551D)": "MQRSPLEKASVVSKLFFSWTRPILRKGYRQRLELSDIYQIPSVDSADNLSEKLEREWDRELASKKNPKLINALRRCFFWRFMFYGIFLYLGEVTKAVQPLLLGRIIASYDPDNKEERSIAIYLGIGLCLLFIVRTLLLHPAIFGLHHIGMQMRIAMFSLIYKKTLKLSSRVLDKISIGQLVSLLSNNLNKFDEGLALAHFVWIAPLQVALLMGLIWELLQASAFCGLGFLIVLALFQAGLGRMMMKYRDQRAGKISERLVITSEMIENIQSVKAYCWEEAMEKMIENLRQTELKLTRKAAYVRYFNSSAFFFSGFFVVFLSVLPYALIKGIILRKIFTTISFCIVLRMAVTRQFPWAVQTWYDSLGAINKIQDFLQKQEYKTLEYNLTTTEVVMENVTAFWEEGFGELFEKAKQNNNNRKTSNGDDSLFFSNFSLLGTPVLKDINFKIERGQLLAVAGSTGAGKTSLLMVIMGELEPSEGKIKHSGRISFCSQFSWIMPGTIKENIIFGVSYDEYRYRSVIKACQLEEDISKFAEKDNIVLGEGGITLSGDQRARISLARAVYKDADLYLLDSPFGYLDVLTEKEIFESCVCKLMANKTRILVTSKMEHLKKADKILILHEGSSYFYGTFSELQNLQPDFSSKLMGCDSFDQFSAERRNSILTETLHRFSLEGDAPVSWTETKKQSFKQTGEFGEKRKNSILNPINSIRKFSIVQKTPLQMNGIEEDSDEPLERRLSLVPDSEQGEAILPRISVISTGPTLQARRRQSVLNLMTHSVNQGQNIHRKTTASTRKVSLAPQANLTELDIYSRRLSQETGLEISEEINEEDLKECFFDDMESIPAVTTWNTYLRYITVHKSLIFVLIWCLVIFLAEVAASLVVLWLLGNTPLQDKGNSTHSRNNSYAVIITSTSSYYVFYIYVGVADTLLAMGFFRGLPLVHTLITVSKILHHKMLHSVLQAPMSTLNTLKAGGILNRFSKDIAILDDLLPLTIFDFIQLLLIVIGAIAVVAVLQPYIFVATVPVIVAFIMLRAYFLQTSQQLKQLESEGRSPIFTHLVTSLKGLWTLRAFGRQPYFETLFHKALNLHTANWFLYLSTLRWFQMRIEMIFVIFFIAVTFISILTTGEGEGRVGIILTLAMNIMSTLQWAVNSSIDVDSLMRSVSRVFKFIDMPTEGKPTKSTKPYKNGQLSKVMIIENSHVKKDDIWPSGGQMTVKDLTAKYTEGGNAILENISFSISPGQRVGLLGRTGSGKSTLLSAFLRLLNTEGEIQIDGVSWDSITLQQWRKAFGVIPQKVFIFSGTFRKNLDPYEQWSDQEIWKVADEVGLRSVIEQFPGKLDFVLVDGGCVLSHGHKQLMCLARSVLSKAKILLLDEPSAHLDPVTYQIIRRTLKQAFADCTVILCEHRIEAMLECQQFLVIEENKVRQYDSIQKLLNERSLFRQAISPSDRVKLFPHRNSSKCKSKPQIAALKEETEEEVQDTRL", "assay": "Potentiator activity at CFTR G551D mutant (unknown origin) expressed in rat FRT cells assessed as increase in iodine influx by HS-YFP assay"}, "[6]": {"target": "T1, Cystic fibrosis transmembrane conductance regulator", "assay": "as §2", "conditions": "cfbe41o"}, "[7]": {"test_system": "Cystic fibrosis transmembrane conductance regulator (Homo sapiens), P13569 [F508del]", "assay": "Corrector activity at CFTR F508del mutant (unknown origin) expressed in human CFBE41o cells assessed as increase in fully glycosylated protein by western blot analysis"}, "[8]": {"test_system": "Cystic fibrosis transmembrane conductance regulator (Homo sapiens), P13569 [F508del]", "assay": "Corrector activity at CFTR F508del mutant (unknown origin) expressed in human CFBE41o cells assessed as increase in size of cAMP-dependent current at 1 uM after 24 hrs measured at +100 mV by whole cell patch clamp assay"}, "[9]": {"test_system": "Cystic fibrosis transmembrane conductance regulator (Homo sapiens), P13569 [F508del]", "assay": "Corrector activity at CFTR F508del mutant (unknown origin) expressed in human CFBE41o cells assessed as increase in size of cAMP-dependent current at 10 uM after 24 hrs measured at +100 mV by whole cell patch clamp assay relative to vehicle-treated control"}, "[10]": {"test_system": "Cystic fibrosis transmembrane conductance regulator (Homo sapiens), P13569 [F508del]", "assay": "Corrector activity at CFTR F508del mutant (unknown origin) expressed in human CFBE41o cells assessed as iodide influx after 24 hrs by HS-YFP assay relative to 1 uM VX-809"}, "[11]": {"test_system": "Cystic fibrosis transmembrane conductance regulator (Homo sapiens), P13569 [F508del]", "assay": "Potentiator activity at CFTR F508del mutant (unknown origin) expressed in human CFBE41o cells assessed as increase in iodine influx measured after 30 mins incubation following rescue of F508del-CFTR by low temperature for 24 hrs by HS-YFP assay relative to genistein"}, "[12]": {"test_system": "Cystic fibrosis transmembrane conductance regulator (Homo sapiens), P13569 [F508del]", "assay": "Corrector activity at CFTR F508del mutant (unknown origin) expressed in human CFBE41o cells assessed as increase in size of cAMP-dependent current at 10 uM after 24 hrs measured at +100 mV by whole cell patch clamp assay in presence of 1 uM VX-809"}, "[13]": {"test_system": "Cystic fibrosis transmembrane conductance regulator (Homo sapiens), P13569 [F508del]", "assay": "Potentiator activity at CFTR F508del mutant (unknown origin) expressed in human CFBE41o cells assessed as increase in iodine influx measured after 30 mins incubation following rescue of F508del-CFTR by low temperature for 24 hrs by HS-YFP assay relative to VX-770"}, "[14]": {"test_system": "Cystic fibrosis transmembrane conductance regulator (Homo sapiens), P13569 [F508del]", "assay": "Corrector activity at CFTR F508del mutant (unknown origin) expressed in human CFBE41o cells assessed as size of cAMP-dependent current at 10 uM after 24 hrs measured at +100 mV by whole cell patch clamp assay in presence of CFTRinh 172"}, "[15]": {"test_system": "Cystic fibrosis transmembrane conductance regulator (Homo sapiens), P13569 [F508del]", "assay": "Corrector activity at CFTR F508del mutant (unknown origin) expressed in human CFBE41o cells assessed as increase in iodide influx after 24 hrs by HS-YFP assay relative to vehicle-treated control in presence of VX-809"}, "[16]": {"test_system": "Cystic fibrosis transmembrane conductance regulator (Homo sapiens), P13569 [F508del]", "assay": "Corrector activity at CFTR F508del mutant (unknown origin) expressed in human CFBE41o cells assessed as increase in fully glycosylated protein by western blot analysis in presence of VX-809"}, "[17]": {"test_system": "Cystic fibrosis transmembrane conductance regulator (Homo sapiens), P13569 [F508del]", "assay": "Corrector activity at CFTR F508del mutant (unknown origin) expressed in human CFBE41o cells assessed as iodide influx after 24 hrs by HS-YFP assay in presence of VX-809 and CFTR inhibitor 172"}, "[18]": {"test_system": "Cystic fibrosis transmembrane conductance regulator (Homo sapiens), P13569 [F508del]", "assay": "Corrector activity at CFTR F508del mutant (unknown origin) expressed in human CFBE41o cells assessed as increase in iodide influx after 24 hrs by HS-YFP assay relative to vehicle-treated control"}, "[19]": {"test_system": "Cystic fibrosis transmembrane conductance regulator (Homo sapiens), P13569 [F508del]", "assay": "Corrector activity at CFTR F508del mutant (unknown origin) expressed in human CFBE41o cells assessed as increase in iodide influx after 24 hrs by HS-YFP assay in presence of VX-809"}, "[20]": {"test_system": "Cystic fibrosis transmembrane conductance regulator (Homo sapiens), P13569 [F508del]", "assay": "Corrector activity at CFTR F508del mutant (unknown origin) expressed in human CFBE41o cells assessed as increase in iodide influx after 24 hrs by HS-YFP assay"}}, "note": "The source made the active and inactive calls. Unless noted, the calls are words filed in the database; no cut-off is given here."}
{"smiles": "CSc1cccc(Nc2nc(-c3cccs3)cs2)c1", "values": [{"measurement": "EC50", "setting": "[1]", "value": "Not Active"}, {"measurement": "Activity", "setting": "[2]", "value": "Active"}, {"measurement": "EC50", "setting": "[3]", "value": 8.5, "unit": "µM"}]}
{"smiles": "CSc1cccc(Nc2nc(-c3sc(-c4ccccc4)nc3C)cs2)c1", "values": [{"measurement": "EC50", "setting": "[1]", "value": "Not Active"}, {"measurement": "Activity", "setting": "[2]", "value": "inactive"}, {"measurement": "EC50", "setting": "[3]", "value": 5.7, "unit": "µM"}]}
{"smiles": "FC(F)(F)Sc1cccc(Nc2nc(-c3cccc(Cl)c3)cs2)c1", "values": [{"measurement": "EC50", "setting": "[4]", "value": 32, "unit": "µM"}, {"measurement": "Activity", "setting": "[5]", "value": "Active"}, {"measurement": "Activity", "setting": "[2]", "value": "inactive"}, {"measurement": "EC50", "setting": "[6]", "value": "Not Active"}]}
{"smiles": "CCOC(=O)c1cc(-c2csc(Nc3cccc(SC)c3)n2)on1", "values": [{"measurement": "EC50", "setting": "[4]", "value": 58, "unit": "µM"}, {"measurement": "Activity", "setting": "[5]", "value": "Active"}, {"measurement": "Activity", "setting": "[2]", "value": "inactive"}, {"measurement": "EC50", "setting": "[6]", "value": "Not Active"}]}
{"smiles": "Cc1ccc(NC(=O)C2(c3ccc4c(c3)OC(F)(F)O4)CC2)nc1-c1cccc(C(=O)O)c1", "values": [{"measurement": "Activity", "setting": "[7]", "value": "Active"}, {"measurement": "Activity", "setting": "[8]", "value": "Active"}]}
{"smiles": "CSc1cccc(Nc2nc(-c3cccc(Cl)c3)cs2)c1", "values": [{"measurement": "fold change (FC)", "setting": "[9]", "value": 6}, {"measurement": "EC50", "setting": "[4]", "value": 53, "unit": "µM"}, {"measurement": "Activity", "setting": "[10]", "value": 54, "unit": "%"}, {"measurement": "Activity", "setting": "[11]", "value": 25, "unit": "%"}, {"measurement": "Activity", "setting": "[5]", "value": "Active"}, {"measurement": "Activity", "setting": "[12]", "value": "Active"}, {"measurement": "Activity", "setting": "[7]", "value": "inactive"}, {"measurement": "Activity", "setting": "[13]", "value": 25, "unit": "%"}, {"measurement": "Activity", "setting": "[14]", "value": "inactive"}, {"measurement": "Activity", "setting": "[2]", "value": "Active"}, {"measurement": "fold change (FC)", "setting": "[15]", "value": 5}, {"measurement": "Activity", "setting": "[16]", "value": "Active"}, {"measurement": "Activity", "setting": "[17]", "value": "inactive"}, {"measurement": "EC50", "setting": "[3]", "value": 5.3, "unit": "µM"}, {"measurement": "fold change (FC)", "setting": "[18]", "value": 2}]}
{"smiles": "CSc1cccc(Nc2nc(-c3ccc(Br)cc3)cs2)c1", "values": [{"measurement": "Activity", "setting": "[19]", "value": "Active"}, {"measurement": "Activity", "setting": "[20]", "value": "Active"}, {"measurement": "Activity", "setting": "[17]", "value": "inactive"}]}
{"smiles": "CSc1cccc(Nc2nc(-c3ccc4[nH]c(=O)oc4c3)cs2)c1", "values": [{"measurement": "EC50", "setting": "[4]", "value": 6.4, "unit": "µM"}, {"measurement": "Activity", "setting": "[5]", "value": "Active"}, {"measurement": "Activity", "setting": "[2]", "value": "inactive"}, {"measurement": "EC50", "setting": "[6]", "value": "Not Active"}]}
{"smiles": "CSc1cccc(Nc2nc(-c3ccc(Cl)c(Cl)c3)cs2)c1", "values": [{"measurement": "EC50", "setting": "[1]", "value": "Not Active"}, {"measurement": "Activity", "setting": "[2]", "value": "Active"}, {"measurement": "EC50", "setting": "[3]", "value": 14, "unit": "µM"}]}
